In the RepoRT retention time repository (doi:10.1016/j.aca.2019.02.001) one finds LC retention time data, which are given here for 77 molecules.

The data set is described as follows: RP, Agilent ZORBAX Eclipse XDB-C18, 100 × 2.1 mm, 1.8 µm, 50 °C, 0.4 mL/min, estimated dead time 0.55 min; A: water + 0.1% formic acid; B: methanol; gradient (min/%B) 0/30 2/30 5/52 15/65 20/78 22.5/78 29/90 38/100. Conditions: stereoisomer not certain.
Take `NC(Cc1ccccc1)C(=O)O` (configuration not stated): the LC retention time was 11.8 min.
In the case of `CCCCCCCCC=CCCCCCCCC(=O)O`, the LC retention time was 30.5 min.
With `NC(CO)C(=O)O` (configuration not stated), the LC retention time was 5.14 min.
Regarding `O=C(O)CCCC(=O)C(=O)O`, the LC retention time is 7.25 min.
The same measure for `CCC(C)CC(=O)O` (configuration not stated): 16.7 min; for `CCCCCCCCCCCCCCCCCCCCCC(=O)O`: 34 min.
Consider `NC(Cc1cnc[nH]1)C(=O)O` (configuration not stated), for which the LC retention time is 2.35 min.
For `NCC(=O)O`, the LC retention time was 5.85 min.
In the case of `Nc1c(O)cccc1C(=O)CC(N)C(=O)O` (configuration not stated), the LC retention time was 21 min.
The same measure for `NCCCCNCCCN`: 9.8 min; for `CCCCCCCCC(=O)O`: 23 min; for `CC(=O)NCCc1c[nH]c2ccc(O)cc12`: 12.2 min.
The same measure for `CCCCCC(=O)O`: 17.4 min; for `CCCCCC=CCC=CCC=CCC=CCCCC(=O)O`: 28.7 min; for `CCCCCCCCCCCCCCC(=O)O`: 28.4 min.
Take `NC(=O)CCC(N)C(=O)O` (configuration not stated): the LC retention time was 4.45 min.
`CC(CCC(=O)O)C1CCC2C3CCC4CC(O)CCC4(C)C3CC(O)C12C` (configuration not stated): the LC retention time is 25.2 min.
For the molecule `CCC(C)C(N)C(=O)O` (configuration not stated), the LC retention time is 11.4 min.
For `CCCCCCC(=O)O`, the LC retention time was 19.7 min.
`CCCCCCCCC=CCCCCCCCCCC(=O)O`: the LC retention time was 31.8 min.
The value for `CC(=O)O` was 8.11 min; that for `O=C(O)C1CCCN1` (configuration not stated) was 8.37 min.
The same measure for `CC(C)C(=O)O`: 11.4 min; for `CC(CCC(=O)O)C1CCC2C3C(O)CC4CC(O)CCC4(C)C3CCC12C` (configuration not stated): 24.9 min.
On to `CCCCCCCCC=CCCCCCCCCCCCCCC(=O)O`, for which the LC retention time was 34.2 min.
The same measure for `CCCCCCCC(=O)O`: 21.4 min.
Take `NCCc1c[nH]c2ccccc12`: the LC retention time is 13.4 min.
Take `CCCCCCCCCCCCCCCCCCCCC(=O)O`: the LC retention time is 33.4 min.
`CCCCC(=O)O`: the LC retention time was 14.5 min.
In the case of `CCCCCCC=CCCCCCCCC(=O)O`, the LC retention time is 27.9 min.
Regarding `CCCCCCCCC=CCCCCCCCCCCCC(=O)O`, the LC retention time is 32.9 min.
For `CCCCCCCCCCCCC(=O)O`, the LC retention time was 26.4 min.
Take `CC(C)C(N)C(=O)O` (configuration not stated): the LC retention time was 9.34 min.
Take `CCCCC(C)C(=O)O` (configuration not stated): the LC retention time was 18.9 min.
Turning to `CC(C)CCC(=O)O`, the LC retention time was 17.1 min.
`O=C(O)C(=O)Cc1c[nH]c2ccccc12`: the LC retention time was 15.5 min.
`O=C(O)c1cc(=O)c2ccccc2[nH]1`: the LC retention time was 17.4 min.
With `CCCCCCCCCCCCCCCCCCC(=O)O`, the LC retention time was 32.1 min.
As to `CCC=CCC=CCC=CCC=CCC=CCCCC(=O)O`, the LC retention time was 27.5 min.
For the molecule `Nc1c(O)cccc1C(=O)O`, the LC retention time was 15.7 min.
On to `O=C(O)c1cc(=O)c2cccc(O)c2[nH]1`, for which the LC retention time was 9.89 min.
The value for `CCCCCCCCCCCCCCCC(=O)O` was 29.8 min; that for `COc1ccc2[nH]cc(CC(=O)O)c2c1` was 12.1 min.
Consider `CC(CCC(=O)O)C1CCC2C3C(O)CC4CC(O)CCC4(C)C3CC(O)C12C` (configuration not stated), for which the LC retention time is 24.2 min.
The value for `CCCCC(C)CCC(=O)O` (configuration not stated) was 22.5 min.
On to `O=C(O)Cc1c[nH]c2ccc(O)cc12`, for which the LC retention time is 12.1 min.
With `CCC(=O)O`, the LC retention time was 9.67 min.
As for `NCCO`, the LC retention time was 5.87 min.
The same measure for `CC(CCC(=O)O)C1CCC2C3CCC4CC(O)CCC4(C)C3CCC12C` (configuration not stated): 26.2 min.
Take `O=C(O)c1cccnc1C(=O)O`: the LC retention time is 8.32 min.
Take `CCC=CCC=CCC=CCC=CCC=CCC=CCCC(=O)O`: the LC retention time is 28.5 min.
For `NCCCNCCCCNCCCN`, the LC retention time is 6.5 min.
The value for `CCCCCCCCCCCCCC(=O)O` was 27.3 min.
For the molecule `CC(O)C(N)C(=O)O` (configuration not stated), the LC retention time was 6.29 min.
The value for `CC(C)CC(=O)O` was 14 min; that for `CCCCCCCCCCCCCCCCCC(=O)O` was 31.5 min.
For `CC(N)C(=O)O` (configuration not stated), the LC retention time is 6.78 min.
Take `CC(C)CC(N)C(=O)O` (configuration not stated): the LC retention time was 11.7 min.
`NCCCCC(N)C(=O)O` (configuration not stated): the LC retention time was 16.2 min.
Consider `CCCCC(CC)C(=O)O` (configuration not stated), for which the LC retention time was 20.2 min.
`NCCCCN`: the LC retention time was 17.6 min.
On to `COc1cc2c(CCNC(C)=O)c[nH]c2cc1O`, for which the LC retention time was 11.9 min.
With `CCCCCCCCCCCC(=O)O`, the LC retention time was 25.6 min.
On to `O=C(O)C(O)Cc1c[nH]c2ccccc12` (configuration not stated), for which the LC retention time is 12.1 min.
As for `NC(N)=NCCCC(N)C(=O)O` (configuration not stated), the LC retention time is 3.02 min.
For `NC(Cc1ccc(O)cc1)C(=O)O` (configuration not stated), the LC retention time is 20.5 min.
In the case of `Nc1ccccc1C(=O)CC(N)C(=O)O` (configuration not stated), the LC retention time was 9.21 min.
As for `CCCC(=O)O`, the LC retention time was 11.8 min.
On to `CCC=CCC=CCC=CCCCCCCCC(=O)O`, for which the LC retention time was 27.5 min.
Consider `CCCCCC(C)C(=O)O` (configuration not stated), for which the LC retention time is 20.6 min.
On to `NC(CS)C(=O)O` (configuration not stated), for which the LC retention time was 6.31 min.
For `CCCCCC=CCC=CCCCCCCCC(=O)O`, the LC retention time was 28.8 min.
As for `CSCCC(N)C(=O)O` (configuration not stated), the LC retention time is 9.06 min.
For the molecule `O=C(O)Cc1c[nH]c2ccccc12`, the LC retention time is 13.4 min.
The same measure for `NC(Cc1c[nH]c2ccccc12)C(=O)O` (configuration not stated): 9.89 min.
`NC(=O)CC(N)C(=O)O` (configuration not stated): the LC retention time is 3.75 min.
As for `CCCCCCCCCC(=O)O`, the LC retention time is 24.3 min.
